In patent publication US8383577B2 (Endo Pharmaceuticals Solutions, Inc., priority 2008, dated 2013):

Tests used:
[1] = cited from earlier work; for CMC: critical micelle concentration; for HLB: hydrophilic-lipophilic balance
[2] = Formulation study: effect of excipient on implant shape and durability (Example 3); format: physicochemical; settings: cartridges about 28% HEMA, about 66.5% HPMA, 5% glycerin
Text: A series of implants was monitored to determine the effect of excipient on implant shape and durability. Each of the polymer cartridges was composed of about 28% HEMA, about 66.5% HPMA and 5% glycerin.

GH = settings: following a subcutaneous octreotide injection; cited from earlier work
IGF-1 = settings: acromegaly patients on octreotide; cited from earlier work

## Sucrose monolaurate
[1]
  CMC: 0.2 mM
  HLB: ~8

## O=C(O)CO [glycolic acid]
[2]
  stabilization of the octreotide implant by excipient: did not provide a stabilizing effect and resulted in a decrease in integrity

## L-cysteinamide, D-phenylalanyl-L-cysteiny-L-phenylalanyl-D-tryptophyl-L-lysyl-L-threonyl-N-[2-hydroxy-1-(hydroxymethyl)propyl]-, cyclic(2→7)-disulfide; [Octreotide, L-cysteinamide, D-phenylalanyl-L-cysteiny-L-phenylalanyl-D-tryptophyl-L-lysyl-L-threonyl-N-[2-hydroxy-1-(hydroxymethyl)propyl]-, cyclic(2→7)-disulfide; [R-(R*,R*)]]
GH
  time to GH level decrease: usually decrease within two hours
IGF-1
  patients with normalization of IGF-1 levels: up to 60 % of patients

## OC[C@@H](O)[C@@H](O)[C@H](O)[C@H](O)CO [mannitol]
[2]
  stabilization of the octreotide implant by excipient: did not provide a stabilizing effect and resulted in a decrease in integrity

## CCCCCCCC/C=C\CCCCCCCC(=O)OCCOCC(OCCO)C1OCC(OCCO)C1OCCO (stereo not shown) [Tween 80]
[1]
  CMC: 0.012 mM
  HLB: 15

## Triton X-100
[1]
  CMC: 0.2 to 0.9 mM
  HLB: 13.5
